Laboratory results: US20250129091A1, “THIENOPYRROLOTRIAZINE COMPOUNDS, THEIR PREPARATION AND THEIR THERAPEUTIC USE” (Sanofi, priority 2022, published 2025)
Where a name gives a salt, the structure may show the parent alone. Read-outs that look alike come from different tables or passages of the source.

Assays:
[1] = system: NLRP3 inflammasome; assay: IL-1β secretion assay (LPS-primed, nigericin-activated THP-1 cells, MSD readout); assay type: cell-based; details: Homo sapiens, read-out: IL1b IC50
Procedure, shortened: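 THP-1 monocytes primed with LPS (10 ng/mL, 3 h, 37 °C), then co-incubated 2 h with serially diluted compound and nigericin 10 μM (final). Supernatant IL-1β measured by MSD electrochemiluminescence immunoassay. IC50 derived from four-parameter logistic fit of % inhibition versus concentration.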

[2] = system: TNF-α secretion; assay: TNF-α secretion assay (PMA-differentiated THP-1 cells, LPS-triggered, MSD readout); assay type: cell-based; details: Homo sapiens, LPS 24 h; for inhibition at 3 µM: compound at 3 μM; for inhibition at 10 µM: compound at 10 μM
Experimental: Monocytic THP-1 cells (DSMZ) were maintained in RPMI media (RPMI 1640 Medium (1×) +10% FBS, biowest S181H). Cells were then differentiated at 160,000 cells per well in 96-well flat bottom cell culture plates with RPMI+0.1% Bovine Serum Albumin solution and 0.5 μM phorbol 12-myristate 13-acetate (PMA; Sigma, ref:P8139) overnight at 37° C. Experimental compounds were prepared and added as described above. TNF-α secretion was triggered by the addition of 0.5 μg/mL LPS (invivoGen, tlrl-3pelps) and cells were incubated for 24 h. 2.5 μL supernatant was removed, and TNF-α levels were monitored using an MSD assay (mesoscale, K15049) according to manufacturers' instructions.
IC50 values were calculated from the plot of percentage of inhibition versus the inhibitor concentration by a logistics fit according to: y=A2+(A1−A2)/(1+(x/IC50)^p) where y is the %-inhibition at the inhibitor concentration, x. A1 is the lowest inhibition value, i.e., 0%, and A2 the maximum inhibition value, i.e., 100%. The exponent, p, is the Hill coefficient. The curve fitting was conducted with an internally developed software.

[3] = Brain over plasma ratio evaluation; assay type: in vivo; details: mouse, brain and plasma, iv; female C57B16 mice, single i.v. 1 mg/kg, 0.25 h post dosing, geometric mean of 3 animals
Experimental: Brain Over Plasma Ratio Evaluation
A solution of 3 mg of compound in a generic vehicle (Glycofurol/solutol/Dextrose 5%: 10%/5%/85%, adjusted at pH3), final concentration 0.2 mg/ml, are stirred overnight at ambient temperature whilst protected from light.
Female C57B16 mice between the ages of 8-12 weeks are administered with the prepared solution, as single intravenous dose of 1 mg/kg into the tail vein with a dose volume of 5 ml/kg. A total of 3 animal replicates are evaluated for each compound utilizing a terminal sampling approach. After 0.25 h post dosing, under anesthesia, 400 μL of blood and the whole brain are collected. Blood sample is centrifuged at 4° C. for 10 minutes at 1500 g; brain is weighted, homogenized using deionized water to give a final ratio of (1/2:w/v). Plasma and brain concentrations are measured by an exploratory LC-MS/MS method.
Individual brain over plasma concentration ratio is calculated for each animal, and geometric mean value is reported.

With `CC(C)c1nn(CC(=O)N[C@@H]2CCCN(C3CCC3)C2)c(=O)c2cc3ccsc3n12.O=CO` [Example 11, (R)—N-(1-cyclobutylpiperidin-3-yl)-2-(8-isopropyl-5-oxothieno[3′,2′:4,5]pyrrolo[1,2-d][1,2,4]triazin-6(5H)-yl)acetamide formate] the IC50 ([1]; THP-1, LPS-primed) was 45 nM, the inhibition at 3 µM [2] was 20.1% and the inhibition at 10 µM [2] was -12.7%. It also gave a Kp at 0.25 h [3] of 3.2.

`CC(C)c1nn(CC(=O)N[C@@H]2CCCN(CC3CC(F)(F)C3)C2)c(=O)c2cc3ccsc3n12.O=CO` [Example 43, (R)—N-(1-((3,3-difluorocyclobutyl)methyl)piperidin-3-yl)-2-(8-isopropyl-5-oxothieno [3′,2′:4,5]pyrrolo[1,2-d][1,2,4]triazin-6(5H)-yl)acetamide formate] showed an IC50 ([1]; THP-1, LPS-primed) of 133 nM and a Kp at 0.25 h [3] of 0.42.

With `CC(C)c1nn(CC(=O)N[C@@H]2CCCN(C3CCC3)C2)c(=O)c2cc3cc(Cl)sc3n12.O=CO` [Example 10, (R)-2-(2-chloro-8-isopropyl-5-oxothieno[3′,2′:4,5]pyrrolo[1,2-d][1,2,4]triazin-6(5H)-yl)-N-(1-cyclobutylpiperidin-3-yl)acetamide formate] the IC50 ([1]; THP-1, LPS-primed) was 101 nM, the inhibition at 3 µM [2] was 3% and the inhibition at 10 µM [2] was -11.9%. The Kp at 0.25 h [3] was 5.84.

Compound `C=O.CC(C)c1nn(CC(=O)N[C@@H]2CCCN(CC3CC3(F)F)C2)c(=O)c2cc3ccsc3n12` (stereo partly drawn) [Example 18, N-((3R)-1-((2,2-difluorocyclopropyl)methyl)piperidin-3-yl)-2-(8-isopropyl-5-oxothieno [3′,2′:4,5]pyrrolo[1,2-d][1,2,4]triazin-6(5H)-yl)acetamide compound with formaldehyde] has an IC50 ([1]; LPS-primed) of 236 nM, an inhibition at 3 µM [2] of 9.6% and an inhibition at 10 µM [2] of 21.6%. The Kp at 0.25 h [3] was 1.56.

With `CC(C)c1nn(CC(=O)N[C@@H]2CCCN(C3CC3)C2)c(=O)c2cc3cc(Cl)sc3n12.O=C(O)C(F)(F)F` [Example 6, (R)-2-(2-chloro-8-isopropyl-5-oxothieno[3′,2′:4,5]pyrrolo[1,2-d][1,2,4]triazin-6(5H)-yl)-N-(1-cyclopropylpiperidin-3-yl)acetamide 2,2,2-trifluoroacetate] the IC50 ([1]; THP-1, LPS-primed) was 158 nM and the Kp at 0.25 h [3] was 7.58.

Compound `CC(C)c1nn(CC(=O)N[C@@H]2CCCN(CCCF)C2)c(=O)c2cc3ccsc3n12.O=CO` [Example 41, (R)—N-(1-(3-fluoropropyl)piperidin-3-yl)-2-(8-isopropyl-5-oxothieno[3′,2′:4,5]pyrrolo[1,2-d][1,2,4]triazin-6(5H)-yl)acetamide formate] has an IC50 ([1]; THP-1, LPS-primed) of 37 nM and a Kp at 0.25 h [3] of 1.56.

In the case of `CN1CCC[C@@H](NC(=O)Cn2nc(C3CC3)n3c(cc4ccsc43)c2=O)C1` [Example 24, (R)-2-(8-cyclopropyl-5-oxothieno[3′,2′:4,5]pyrrolo[1,2-d][1,2,4]triazin-6(5H)-yl)-N-(1-methylpiperidin-3-yl)acetamide formate], the IC50 ([1]; THP-1, LPS-primed) is reported as 2890 nM, the inhibition at 3 µM [2] is reported as 12% and the inhibition at 10 µM [2] is reported as 15.5%.

`CC(C)c1nn(CC(=O)NC2CCCN(C(C)(C)C)C2)c(=O)c2cc3cc(Br)sc3n12` (centres unmarked) [Example 59, 2-(4-bromo-12-isopropyl-9-oxo-3-thia-1,10,11-triazatricyclo[6.4.0.02,6]dodeca-2(6),4,7,11-tetraen-10-yl)-N-(1-tert-butyl-3-piperidyl)acetamide] gave an IC50 ([1]; THP-1, LPS-primed) of 34 nM and a Kp at 0.25 h [3] of 1.15.

For `CC(C)c1nn(CC(=O)N[C@@H]2CCCN(C3CC3)C2)c(=O)c2cc3ccsc3n12` [Example 4, (R)—N-(1-cyclopropylpiperidin-3-yl)-2-(8-isopropyl-5-oxothieno[3′,2′:4,5]pyrrolo[1,2-d][1,2,4]triazin-6(5H)-yl)acetamide], the IC50 ([1]; THP-1, LPS-primed) was 54 nM, the inhibition at 3 µM [2] was 21.5% and the inhibition at 10 µM [2] was 7.5%.

`CC(C)c1nn(CC(=O)N[C@@H]2CCCN(CC3CCCC3)C2)c(=O)c2cc3ccsc3n12` [Example 17, (R)—N-(1-(cyclopentylmethyl)piperidin-3-yl)-2-(8-isopropyl-5-oxothieno[3′,2′:4,5]pyrrolo [1,2-d][1,2,4]triazin-6(5H)-yl)acetamide] gave an IC50 ([1]; THP-1, LPS-primed) of 300 nM, an inhibition at 3 µM [2] of 11.2% and an inhibition at 10 µM [2] of 31.4%.

For `O=C(Cn1nc(C2CC2)n2c(cc3ccsc32)c1=O)N[C@@H]1CCCN(C2CC2)C1` [Example 21, (R)-2-(8-cyclopropyl-5-oxothieno[3′,2′:4,5]pyrrolo[1,2-d][1,2,4]triazin-6(5H)-yl)-N-(1-cyclopropylpiperidin-3-yl)acetamide], the IC50 ([1]; THP-1, LPS-primed) was 60 nM, the inhibition at 3 µM [2] was 11.7% and the inhibition at 10 µM [2] was 13.5%.
